The target of one experiment is T1, human thymidylate synthase (TS) (Homo sapiens, UniProt P04818).
T1 construct: screening in live, non-engineered cells expressing thymidylate synthase; endogenous in cells; host or cells: K562 (human myelogenous leukemia) cells
T1 sequence (P04818 2-313 limits assumed): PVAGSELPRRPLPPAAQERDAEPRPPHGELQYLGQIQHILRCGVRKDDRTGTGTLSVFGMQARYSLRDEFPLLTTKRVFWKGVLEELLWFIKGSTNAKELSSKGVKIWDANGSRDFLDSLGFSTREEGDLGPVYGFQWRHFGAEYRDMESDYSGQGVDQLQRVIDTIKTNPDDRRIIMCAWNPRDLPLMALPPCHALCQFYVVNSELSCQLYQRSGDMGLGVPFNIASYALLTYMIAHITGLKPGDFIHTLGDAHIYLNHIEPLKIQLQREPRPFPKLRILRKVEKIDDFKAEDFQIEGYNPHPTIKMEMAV
The experiment can be described thus: CETSA primary screen / single-concentration retest, AlphaScreen, live K562 cells. Format: cell-based. The following applies: 50 μM compound, 2 h preincubation, 50 °C; 0% = DMSO, 100% = 100 nM raltitrexed. As for the experimental part:
Compounds were placed in columns 1–22. […] At the day of the experiment the plates were allowed to thaw for 30 min followed by a brief centrifugation step (1,000 × g for 1 min) prior to removal of the seal. The compounds were then diluted with 20 μl supplemented cell culture medium using a Multidrop Combi reagent dispenser (Thermo Scientific). Finally 5 μl of the diluted compounds were transferred to a 384 well hardshell PCR plate (HSR480, BIORAD) using a Bravo liquid handling platform equipped with a 384-well head (Agilent). […] The final concentration of DMSO in the assay was 0.5% in all samples.
The screen procedure started with the addition of 5 μl of a suspension of K562 cells at a density of 10 million cells per ml to all wells of a 384 well hardshell PCR plate (HSR480, BIORAD) using an electronic multichannel pipette (Biohit). […] For the time-course experiments the incubation times were altered to include also 10 min, 30 min and 6 h. […] After the incubation step the plates were transiently heated at 50 °C for 3 min followed by a controlled cooling to 20 °C for 1 min using a real-time PCR machine (LightCycler480 system, Roche). Plate handling was then as described above for the thermal aggregation experiments. The data were analyzed using microsoft excel and GraphPad Prism 6.
A calculation of the average and standard error of means for each set of controls also allowed an illustration of how these responses varied over the 32 screening plates. The Z′ factor[38] is commonly used as a measure of how well the assay separates between the controls and this was calculated as described based on the calculated averages and standard deviations of the controls on a per plate basis. For the Tagg shift and the […] experiments the data were analyzed in GraphPad Prism using the Boltzmann sigmoid equation and the saturation binding curve (rectangular hyperbola; binding isotherm) function, respectively. As already discussed[14] these methods make use of equilibrium models for data analysis although the methodology depends on the irreversible aggregation of denatured material. For this reason we refer to the observed responses as apparent and isothermal dose-response fingerprints and are careful with any quantitative interpretations, being well aware of their dependency on experimental conditions. Experiments are on-going to address the quantitative interpretation of CETSA data.
Background: Alpha assays give light when donor and acceptor beads are brought close together.
`Cc1cn(C2CC(O)C(CO)O2)c(=O)[nH]c1=O` (stereo not drawn) [CBK011998]: the “% stabilization in screen” value was -1%.
`C[CH2][Hg][S]c1ccccc1C(=O)[O-].[Na+]` [CBK200591N, Thimerosal, reference compound]: the “% stabilization in screen” value is 115%.
The same measure, in the same setting: under `COC1C(O)C(CO)OC1n1cc(F)c(=S)[nH]c1=O` (stereo not drawn) [CBK201168] stands 2%; under `O=C(O)/C=C/c1cn([C@H]2C[C@@H](O)[C@@H](CO)O2)c(=O)[nH]c1=O` [CBK201174], 17%; under `C#Cc1cn([C@@H]2O[C@H](CO)[C@H](O)C2O)c(=O)[nH]c1=O` (stereo partly drawn) [CBK201179], 20%.
Same read-out and setting: as for `O=c1[nH]c(=O)n([C@@H]2O[C@H](CO)[C@H](O)C2O)cc1Br` (stereo partly drawn) [CBK201180], the figure is -1%; as for `O=C(/C=C/c1cn([C@H]2C[C@@H](O)[C@@H](CO)O2)c(=O)[nH]c1=O)ON1C(=O)CCC1=O` [CBK201188], 16%.
`O=c1ncccn1[C@@H]1O[C@H](CO)[C@H](O)C1O` (stereo partly drawn) [CBK201195]: the “% stabilization in screen” value is listed as 22%.
Same read-out and setting: as for `Cc1cn([C@H]2C[C@@H](O)[C@@H](CI)O2)c(=O)[nH]c1=O` [CBK201197], the figure is -1%.
Same read-out and setting: under `Cc1cn(C2CC(O)C(CNC(=O)C(F)(F)F)O2)c(=O)[nH]c1=O` (stereo not drawn) [CBK201200] stands 0%; under `O=C(/C=C/c1cn(C2CC(O)C(CO)O2)c(=O)[nH]c1=O)NCCNC(=O)C(F)(F)F` (stereo not drawn) [CBK201214], 9%.
Same read-out and setting: under `Nc1nc(=O)n([C@H]2C[C@@H](O)[C@@H](CO)O2)cc1I` [CBK201226] stands 7%.
Regarding `O=C(/C=C/c1cn(C2OC(CO)C(O)C2O)c(=O)[nH]c1=O)NCCCCCCNC(=O)C(F)(F)F` (stereo not drawn) [CBK201231], the “% stabilization in screen” value is given as -1%.
On the same count and under the same terms, as for `Cc1cn(C2CC(O)C(C3N(c4ccccc4)CCN3c3ccccc3)O2)c(=O)[nH]c1=O` (stereo not drawn) [CBK201232], the figure is -1%; as for `O=c1nc2c(cn1[C@H]1C[C@@H](O)[C@@H](CO)O1)Sc1ccccc1N2` [CBK201237], 9%.
The same measure, in the same setting: as for `O=c1[nH]c(=O)n([C@H]2C[C@@H](O)[C@@H](CO)O2)cc1CCO` [CBK201239], the figure is 17%; as for `O=C(NC/C=C/c1cn(C2CC(O)C(CO)O2)c(=O)[nH]c1=O)C(F)(F)F` (stereo not drawn) [CBK201249], 17%; as for `COC1C(O)C(CO)OC1n1cc(C)c(=O)[nH]c1=O` (stereo not drawn) [CBK201251], -1%.
On the same count and under the same terms, under `COC1C(O)C(CO)OC1n1cc(F)c(=O)[nH]c1=O` (stereo not drawn) [CBK201253] stands 61%; under `Nc1cccc(-c2cn([C@H]3C[C@@H](O)[C@@H](CO)O3)c(=O)[nH]c2=O)c1` [CBK201262], 16%; under `Cc1cn([C@@H]2O[C@H](CO)[C@H](O)C2O)c(=O)[nH]c1=O` (stereo partly drawn) [CBK201265], 17%.
Take `O=C(O)/C=C/c1cn([C@@H]2O[C@H](CO)[C@H](O)C2O)c(=O)[nH]c1=O` (stereo partly drawn) [CBK201270]: the “% stabilization in screen” value is listed as -1%.
Turning to `Nc1ccn([C@H]2C[C@@H](O)[C@@H](CO)O2)c(=O)n1` [CBK201274], the “% stabilization in screen” value is reported as -1%.
On the same count and under the same terms, as for `C#CCOc1cn([C@H]2C[C@@H](O)[C@@H](CO)O2)c(=O)[nH]c1=O` [CBK201278], the figure is 7%; as for `COC1C(O)C(CO)OC1n1cc(F)c(Oc2c(C)cc(C)cc2C)nc1=O` (stereo not drawn) [CBK201279], 0%; as for `Cc1cn2c(nc1=O)OC[C@H]1O[C@@H]2C[C@H]1O` [CBK201280], 0%.
On the same count and under the same terms, as for `Cn1c(=O)ccn([C@@H]2O[C@H](CO)[C@H](O)C2O)c1=O` (stereo partly drawn) [CBK201281], the figure is -1%; as for `Cc1ccc(S(=O)(=O)OC[C@H]2O[C@@H](n3ccc(=O)[nH]c3=O)C[C@H]2O)cc1` [CBK201283], -2%; as for `Cc1cc2cn([C@H]3C[C@@H](O)[C@@H](CO)O3)c(=O)nc2o1` [CBK201287], 20%.
On to `O=C(NC/C=C/c1cn(C2OC(CO)C(O)C2O)c(=O)[nH]c1=O)C(F)(F)F` (stereo not drawn) [CBK201298], for which the “% stabilization in screen” value was -1%.
The same measure, in the same setting: under `Cc1cc2cn([C@H]3C[C@@H](O)[C@@H](CO)O3)c(=O)nc2[nH]1` [CBK201302] stands 21%; under `O=c1[nH]c(=O)n([C@@H]2O[C@H](CO)[C@H](O)C2O)cc1I` (stereo partly drawn) [CBK201304], -1%; under `Nc1nc(=O)n([C@@H]2O[C@H](CO)[C@H](O)C2O)cc1I` (stereo partly drawn) [CBK201306], -1%.
On the same count and under the same terms, as for `Cc1cn([C@H]2C[C@@H](O)[C@@H](CO)O2)c(=O)nc1N.Cl` [CBK201307], the figure is 4%.
Turning to `O=C(/C=C/c1cn(C2CC(O)C(CO)O2)c(=O)[nH]c1=O)NCCCCCCNC(=O)C(F)(F)F` (stereo not drawn) [CBK201310], the “% stabilization in screen” value stood at 15%.
As to `Cc1cn([C@H]2C[C@@H](O)[C@@H](CN)O2)c(=O)[nH]c1=O` [CBK201315], the “% stabilization in screen” value is on record as -1%.
As to `O=c1ccn([C@H]2C[C@@H](O)[C@@H](CO)O2)c(=O)[nH]1` [CBK201316], the “% stabilization in screen” value was -1%.
The same measure, in the same setting: as for `O=c1[nH]c(=O)n([C@H]2C[C@@H](O)[C@@H](CO)O2)cc1O` [CBK201317], the figure is 16%; as for `Cc1cn([C@H]2C[C@@H](O)[C@@H](CO)O2)c(=O)n(CCC#N)c1=O` [CBK201322], -1%; as for `CN(C)/C=N/c1nc(=O)n([C@H]2CC(O)[C@@H](CO)O2)cc1/C=C/C(=O)NCCCCCCNC(=O)C(F)(F)F` (stereo partly drawn) [CBK201330], 13%.
Still for that read-out and setting: under `O=c1[nH]c(=O)n([C@H]2C[C@@H](O)[C@@H](CO)O2)cc1CO` [CBK201332] stands 9%.

Still in this experiment, the particulars now being: 6 h preincubation, K562 cells.
For the molecule `COC1C(O)C(CO)OC1n1cc(F)c(=S)[nH]c1=O` (stereo not drawn) [CBK201168], the “% stabilization at retest (6h preincubation)” value is given as 5%.
Take `C#CCOc1cn([C@H]2C[C@@H](O)[C@@H](CO)O2)c(=O)[nH]c1=O` [CBK201278]: the “% stabilization at retest (6h preincubation)” value turned out to be 12%.
Same read-out and setting: under `O=c1[nH]c(=O)n([C@H]2C[C@@H](O)[C@@H](CO)O2)cc1CO` [CBK201332] stands 7%.

Still in this experiment, the particulars now being: K562, 2 h, 50 μM compound, 2 h preincubation, 50 °C; 0% = DMSO, 100% = 100 nM raltitrexed; read-out: % stabilization in screen.
In the case of `c1cnc(N2CCN(Cc3ccc4c(c3)OCO4)CC2)nc1` [CBK041124C, Piribedil, reference compound], the % stabilization in screen at 50 µM was 17%.
Still for that read-out and setting: under `Clc1ccc(C(Cn2ccnc2)OCc2csc3c(Cl)cccc23)c(Cl)c1` (stereo not drawn) [CBK200917G, Sertaconazole nitrate, reference compound] stands 66%; under `CC(=O)OCC(=O)[C@@]12OC3(CCCC3)O[C@@H]1C[C@H]1[C@@H]3CCC4=CC(=O)C=C[C@]4(C)[C@@]3(F)[C@@H](O)C[C@@]12C` [CBK200950, Amcinonid, reference compound], 56%.
The same measure, in the same setting: under `CN1CCN(c2c(F)cc3c(=O)c(C(=O)O)cn(CCF)c3c2F)CC1` [CBK201030, Fleroxacin, reference compound] stands 66%.

The same experiment, now with this note: K562, 2 h; read-out: % stabilization in screen.
With `Nc1nc(N)c2nc(-c3ccccc3)c(N)nc2n1` [CBK012158, Triamterene, reference compound], the % stabilization in screen at 50 µM worked out at 78%.
For `CC(C)NCC(O)c1ccc(NS(C)(=O)=O)cc1` (stereo not drawn) [CBK012353C, Sotalol, reference compound], the % stabilization in screen at 50 µM came to 14%.
`Nc1ncnc2c1nc(Br)n2[C@@H]1O[C@H](CO)[C@@H](O)[C@H]1O` [CBK015742, 8-bromoadenosine]: the % stabilization in screen at 50 µM was 20%.
Same read-out and setting: as for `COc1ccccc1N1CCN(CC(O)COc2cccc3ccccc23)CC1` (stereo not drawn) [CBK041301C, Naftopidil, reference compound], the figure is 59%.
Same read-out and setting: as for `Cc1ccc(-c2cc(C(F)(F)F)nn2-c2ccc(S(N)(=O)=O)cc2)cc1` [CBK041793, Celecoxib, reference compound], the figure is 61%.
The same measure, in the same setting: as for `Nc1ncn([C@@H]2O[C@H](CO)[C@@H](O)[C@H]2O)c(=O)n1` [CBK200768, 5-Azacytidine, reference compound], the figure is 32%; as for `Cc1ccc2c(c1)c1c3n2CCNC3CCC1` (stereo not drawn) [CBK200931G, Pirlindole, reference compound], 23%; as for `Nc1ccn([C@@H]2O[C@H](CO)[C@@H](O)C2(F)F)c(=O)n1` [CBK200978, gemcitabine, reference compound], 0%.
For `C=CCOc1nc2c(=O)[nH]c(NC(=O)C(C)C)nc2n1[C@H]1C[C@H](O)[C@@H](CO)O1` [CBK201216, 8-allyloxy-N2-isobutyryl-2′-deoxyguanosine], the % stabilization in screen at 50 µM was 30%.

The values are drawn from paper PMC4820820, “CETSA screening identifies known and novel thymidylate synthase inhibitors and slow intracellular activation of 5-fluorouracil” (Nature Communications, 2016).
